Source: US9399032B2, “Methods and compositions for treating degenerative and ischemic disorders” (The General Hospital Corporation, priority 2009, dated 2016)
Structures can show the parent of a compound that is named as a salt.

What was measured:
Glutaminase (GLS) = assay: Western detection of Glutaminase (GLS) protein; format: cell-based; conditions: Western blot
Procedure: To explore this hypothesis, activation of glycolysis via hypoxia inducible factor (HIF), a known transcriptional activator of glycolysis, was tested. HIF1-α and HIF2-α stabilization was assessed in HeLa cells by carrying out Western blot detection using anti-HIF1-α antibody (Cell Signaling Cat. No. 3716) and anti-HIF2-α antibody (Novus Biologicals). Protein was extracted from cells pre-treated with either 0.1% DMSO, 50 μM meclizine or 100 μM deferoxamine (Sigma Cat. No. D9533). Western detection of Glutaminase (GLS) was carried out on protein extracts from 293 cells using anti-GLS antibodies (gift from Dr. Javier Marquez, University of […], Spain).

HIF1-α and HIF2-α = assay: HIF stabilization (Western blot, HIF reporter); format: cell-based; conditions: HeLa cells, 50 μM, 6 h
Procedure: FIGS. 10A-10B present exemplary data showing the effect of meclizine on HIF-1α stabilization. 10A, HIF-1α and HIF-2α detection by western blot analysis of protein extract from HeLa cells after 6-h treatment with 0.1% DMSO, 100 μM deferoxamine (DFO) or […]. 10B, a bar graph showing HIF reporter activity measured in transiently transfected HeLa cells following 6 hours treatment with DMSO, 100 μM DFO or 50 μM Mec. NTC refers to non-transfected control. Data is representative of 2 independent experiments done in triplicate. (*P<0.05; two sided t-test).
To explore this hypothesis, activation of glycolysis via hypoxia inducible factor (HIF), a known transcriptional activator of glycolysis, was tested. HIF1-α and HIF2-α stabilization was assessed in HeLa cells by carrying out Western blot detection using anti-HIF1-α antibody (Cell Signaling Cat. No. 3716) and anti-HIF2-α antibody (Novus Biologicals). Protein was extracted from cells pre-treated with either 0.1% DMSO, 50 μM meclizine or 100 μM deferoxamine (Sigma Cat. No. D9533). Western detection of Glutaminase (GLS) was carried out on protein extracts from 293 cells using anti-GLS antibodies (gift from Dr. Javier Marquez, University of Malaga, Spain).

[1] = system: primary cardiomyocytes isolated from rat heart; assay: Respiration in primary cardiomyocytes; format: cell-based; conditions: 20 min exposure
Procedure: Cardiomyocytes were exposed to the indicated concentration of meclizine for 20 min followed by oxygen measurement in the respiration chamber. Typical respiration traces are shown.
Meclizine was confirmed to shift a cell's relative reliance on OXPHOS versus glycolysis by whole cell bioenergetic kinetic assays. […] This was true in primary cardiomyocytes isolated from rat heart (FIG. 3K) and primary cortical neurons isolated from mouse embryos (FIG. 3L). Cardiomyocytes were exposed to the indicated concentration of meclizine for 20 min followed by oxygen measurement in a respiration chamber. Oxygen consumption rate (OCR) measurements were made following meclizine (5 and 10 μM) or antimycin (1 μM) addition at time 0 (min) in mouse primary cortical neurons obtained from day E14-15 embryos.

[2] = system: Adult rat ventricular cardiomyocytes; assay: Simulated ischemia-reperfusion injury in isolated cardiomyocytes; format: cell-based
Procedure: The ability of meclizine to protect isolated cardiomyocytes and isolated hearts from ischemic injury was investigated as follows Adult rat ventricular cardiomyocytes were isolated by endotoxin-free collagenase perfusion, and the simulated ischemia-reperfusion injury was performed as previously described (Wojtovich and Brookes, Basic Res. Cardiol., 104:121-129 (2009)). Control cells were exposed to DMSO for 20 minutes. Test cells were exposed to either vehicle or doses of meclizine for 20 minutes, which was washed out before being subjected to ischemia for 60 minutes followed by reperfusion for 30 minutes under normoxic conditions in normoxic glucose-replete buffer at pH 7.4. Cell viability was assayed by Trypan blue exclusion. VO2 was assessed by isolating mitochondria and measuring both respirating cells and mitochondria using a Clark oxygen electrode (Wojtovich, supra).

caspase 3 and caspase 7 = assay: Western blot of cleaved caspase 3 and 7 after serum withdrawal; format: cell-based, murine; conditions: 50 μM, up to 24 hours after serum withdrawal
Procedure: Western blot analysis was performed as follows. Murine STH^Q111/111 striatal cells expressing mutant huntingtin protein were grown to ˜75% confluency in 15 cm cell culture plate. Then serum containing medium was replaced with serum free media with either 0.1% DMSO or 50 μM meclizine and total protein was extracted at 0, 4, 10 and 24 hours post serum withdrawal and drug treatment in cell lysis buffer (Cell Signaling Cat No. 9803).
Protein concentration was determined using BCA protein assay kit (Thermo Scientific Cat No. 23227). SDS PAGE was performed using NuPAGE 4-12% Bis-Tris gel from Invitrogen (NP0321). 15 μg of protein was loaded per lane. Western blotting was performed as per the standard procedures. Cleaved Caspase 3 (Cat. No. 9661), Cleaved Caspase 7 (Cat. No. 9491), p-ERK ([…]; Cat No. 9803), and AKT (Cat. No. 9803) antibodies were obtained from Cell Signaling. β-Actin antibody was purchased from Sigma (A1978).

male C57BL/6 mice = assay: Murine model of stroke (transient middle cerebral artery occlusion); format: in vivo, mouse
[3] = system: human skin fibroblasts, mouse striatal cells, human embryonic kidney cells, and Hela cells; assay: OCR and ECAR in other cell types; format: cell-based; conditions: 50 μM, 200 minutes
Procedure: The OCR and ECAR measurements on HeLa, 293, and STHdh^Q7/7 mouse striatal cells were carried out by growing them in XF24 plates at 40,000/well (HeLa) and STHdh^Q7/7 mouse striatal cells) and 60,000/well (293 cells) for ˜20 hours in their regular growth conditions. The assay medium was the same as above except that 25 mM glucose was used as the sugar source. The measurements were performed simultaneously every 7 minutes after a 2 minute mix and 2 minute wait period for MCH fibroblasts and every 6 minutes (with 2 minutes mix and 2 minute wait) for HeLa, 293, and STHdh^Q7/7 mouse striatal cells. Three baseline measurements were recorded prior to the addition of oligomycin (Biochemika 75352), Antimycin (Sigma A8674), roetnone (Sigma R8875), carbonyl cyanide 3-chlorophenylhydrazone (Sigma C2759) and meclizine hydrochloride (MSDiscovery 01500376). 50 mM stock solution of meclizine was made in DMSO, which was diluted to specified concentration in assay medium and its pH was adjusted to 7.4 by 1N Sodium hydroxide solution. The measurements were carried out at 33° C. for mouse striatal cells but for all other cell types measurement were done at 37° C.

Procedure for MCH58 fibroblasts: Cell viability was assayed by calcein acetoxymethyl (AM) ester assay (Invitrogen C34852). MCH58 cells were seeded in 96-well plates at 5000 cells/well in DMEM high glucose medium. After ˜20 hours, cells were washed in PBS and the growth medium was replaced with 10 mM glucose or 10 mM galactose media containing different concentration of drugs or DMSO (0.1%). The cells were then grown for 72 hours followed by washing with PBS and addition of 5 μM calcein AM. After 30 minutes of incubation at 37° C., fluorescence was measured at an excitation and emission wavelength (ex/em) of 485 nm and 530 nm in a DTX880 multimode detector (Beckman Coulter).
Total cellular ATP level was measured using the CellTiter-Glo Luminescent Viability assay (Promega, G7571). Cells were grown in 96-well plates at 5000 cells/well for MCH58 and 20,000 cells/well for mouse striatal cells.

## Cc1cccc(CN2CCN(C(c3ccccc3)c3ccc(Cl)cc3)CC2)c1 (racemic) [Meclizine, meclizine hydrochloride]
Glutaminase (GLS)
  GLS protein level: not reduced
MCH58 fibroblasts; MCH58
  cellular ATP levels, galactose-rich relative to glucose-rich media: more sensitive
MCH58 fibroblasts; human
  LD50 in galactose-rich media as compared to glucose-rich media: at least two-fold difference
MCH58 fibroblasts; over a three-day period
  growth of fibroblasts: retard the growth of fibroblasts in a dose dependent manner
HIF1-α and HIF2-α
  HIF stabilization: No HIF stabilization
[1]
  respiration in primary cardiomyocytes: inhibits respiration
[2]; 50 μM and 100 μM
  protection against I/R at high concentrations: not observed
[2]; 60 minutes ischemia, 30 minutes reperfusion
  protection of cardiomyocytes against I/R (cell viability, Trypan blue): protected cardiomyocytes against I/R at various concentrations
[2]; compared to DMSO treated cells
  VO2 in cardiomyocytes: decrease in VO2
Caspase 3 and caspase 7
  serum deprivation-induced activation of caspase 3 and caspase 7: prevented
Male C57BL/6 mice; 100 mg/kg i.p.
  CBF (cerebral blood flow): did not differ significantly
Male C57BL/6 mice; two intraperitoneal injections of 100 mg/kg at 17 and 3 hours before ischemia
  infarct volume (brain): significantly lower
[3]
  oxygen consumption and extracellular acidification rate in other cell types: reductions in oxygen consumption and concomitant increase in extracellular acidification rate
